{"source": "paper PMC4581723", "about": "“Evaluation of In Vitro Activity of the Class I PI3K Inhibitor Buparlisib (BKM120) in Pediatric Bone and Soft Tissue Sarcomas” (PLoS ONE, 2015)", "key": {"A204": {"tested_on": "A204", "assay": "Cell viability assay (MTT), 72 h", "type": "cell-based", "conditions": "Homo sapiens, A204 (RMS), read-out: GDC-0941 cell viability IC50"}, "RD": {"tested_on": "RD", "assay": "Cell viability assay (MTT), 72 h", "type": "cell-based", "conditions": "Homo sapiens, RD (RMS), read-out: GDC-0941 cell viability IC50"}, "A4573": {"tested_on": "A4573", "assay": "Cell viability assay (MTT), 72 h", "type": "cell-based", "conditions": "A4573 (ES), read-out: GDC-0941 cell viability IC50"}, "TC-174": {"tested_on": "TC-174", "assay": "Cell viability assay (MTT), 72 h", "type": "cell-based", "conditions": "TC-174 (ES), read-out: GDC-0941 cell viability IC50"}, "HOS": {"tested_on": "HOS", "assay": "Cell viability assay (MTT), 72 h", "type": "cell-based", "conditions": "Homo sapiens, HOS (OS), read-out: GDC-0941 cell viability IC50"}, "KHOS": {"tested_on": "KHOS", "assay": "Cell viability assay (MTT), 72 h", "type": "cell-based", "conditions": "KHOS (OS), read-out: GDC-0941 cell viability IC50"}, "SJSA": {"tested_on": "SJSA", "assay": "Cell viability assay (MTT), 72 h", "type": "cell-based", "conditions": "SJSA (OS), read-out: GDC-0941 cell viability IC50"}, "osteosarcoma [1]": {"tested_on": "osteosarcoma", "conditions": "cited from earlier work"}, "osteosarcoma [2]": {"tested_on": "osteosarcoma", "design": "method as in PMID 24961790, PMID 24333720", "conditions": "cited from earlier work"}, "[3]": {"tested_on": "pediatric tumor cell lines", "design": "method as in PMID 23002019", "conditions": "panel of pediatric tumor cell lines, including sarcomas; read-out: median relative IC50; cited from earlier work"}, "[4]": {"tested_on": "chronic lymphocytic leukemia", "conditions": "cited from earlier work"}, "TC-32": {"tested_on": "TC-32", "assay": "Cell viability assay (MTT), 72 h", "type": "cell-based", "conditions": "TC-32 cells"}, "[5]": {"tested_on": "bone and soft-tissue sarcomas", "design": "method as in PMID 23477833", "conditions": "combination with the mTOR inhibitor temsirolimus; phase II; patients with bone and soft-tissue sarcomas; cited from earlier work"}}, "note": "Read-outs that look alike come from different tables or passages of the source.", "data": [{"compound": "CS(=O)(=O)N1CCN(Cc2cc3nc(-c4cccc5[nH]ncc45)nc(N4CCOCC4)c3s2)CC1", "note": "[GDC-0941, pictilisib]", "values": [{"measurement": "IC50", "setting": "A204", "result": 27.1, "unit": "nM"}, {"measurement": "IC50", "setting": "RD", "result": 278, "unit": "nM"}, {"measurement": "IC50", "setting": "A4573", "result": 376, "unit": "nM"}, {"measurement": "IC50", "setting": "TC-174", "result": 170, "unit": "nM"}, {"measurement": "IC50", "setting": "HOS", "result": 161, "unit": "nM"}, {"measurement": "IC50", "setting": "KHOS", "result": 1200, "unit": "nM"}, {"measurement": "IC50", "setting": "SJSA", "result": 297, "unit": "nM"}]}, {"compound": "Cn1c(=O)n(-c2ccc(C(C)(C)C#N)cc2)c2c3cc(-c4cnc5ccccc5c4)ccc3ncc21", "note": "[NVP-BEZ235]", "values": [{"measurement": "tumor growth in vivo", "setting": "osteosarcoma [1]", "result": "inhibited"}, {"measurement": "in vitro cellular proliferation", "setting": "osteosarcoma [2]", "result": "inhibited"}]}, {"compound": "Cc1nc(NC(=O)N2CCC[C@H]2C(N)=O)sc1-c1ccnc(C(C)(C)C(F)(F)F)c1", "note": "[NVP-BYL719]", "values": [{"measurement": "tumor growth in vivo", "setting": "osteosarcoma [1]", "result": "inhibited"}, {"measurement": "tumor growth", "setting": "osteosarcoma [1]; combined with the chemotherapeutic agent ifosfamide", "result": "synergistically inhibited tumor growth"}, {"measurement": "in vitro cellular proliferation", "setting": "osteosarcoma [2]", "result": "inhibited"}]}, {"compound": "COc1ccc(Cl)c(Nc2nc3ccccc3nc2NS(=O)(=O)c2cccc(NC(=O)C(C)(C)N)c2)c1", "note": "[SAR245408]", "values": [{"measurement": "IC50", "setting": "[3]", "result": 10900, "unit": "nM"}]}, {"compound": "CC[C@H](Nc1ncnc2[nH]cnc12)c1nc2cccc(F)c2c(=O)n1-c1ccccc1", "note": "[idelalisib]", "values": [{"measurement": "overall response rate", "setting": "[4]; combined with rituximab", "result": 81, "unit": "%"}, {"measurement": "overall response rate", "setting": "[4]; single agent", "result": 72, "unit": "%"}]}, {"compound": "CC(=O)Nc1cccc(-n2c(=O)n(C3CC3)c(=O)c3c(Nc4ccc(I)cc4F)n(C)c(=O)c(C)c32)c1", "note": "[tramenitib, trametinib]", "values": [{"measurement": "cytotoxicity as single agent", "setting": "TC-32", "result": "no tramenitib cytotoxicity was observed"}]}, {"compound": "cixutmumuab: IGF1R antibody, evaluated in combination with the mTOR inhibitor temsirolimus", "values": [{"measurement": "response rate", "setting": "[5]", "result": 15, "unit": "%"}]}]}
